According to publication PMC3579662 (Journal of the American Chemical Society, 2013):

What was measured:
[1] = molecular target: T1, alanine racemase (AR); light protiated form HAR (Geobacillus stearothermophilus, UniProt P10724); experiment: steady-state racemization kinetics, competitive inhibition; type: biochemical
[2] = molecular target: T1, alanine racemase (AR); light protiated form HAR; experiment: Michaelis-Menten saturation curves; type: biochemical; conditions: pH 8.9, 25 °C; light (protiated) enzyme

T1 sequence (P10724 whole entry): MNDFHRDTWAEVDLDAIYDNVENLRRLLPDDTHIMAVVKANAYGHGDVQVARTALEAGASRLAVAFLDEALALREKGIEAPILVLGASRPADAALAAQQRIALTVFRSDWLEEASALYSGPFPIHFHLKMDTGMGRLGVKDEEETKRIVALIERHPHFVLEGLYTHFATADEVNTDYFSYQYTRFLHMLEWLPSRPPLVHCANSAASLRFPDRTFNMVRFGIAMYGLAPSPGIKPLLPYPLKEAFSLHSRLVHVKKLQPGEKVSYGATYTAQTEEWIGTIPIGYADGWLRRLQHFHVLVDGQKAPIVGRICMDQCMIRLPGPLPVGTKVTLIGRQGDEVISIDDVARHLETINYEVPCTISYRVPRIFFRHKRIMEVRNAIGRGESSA

Compound	Ki [1]	KM [2]
CC(C)(N)C(=O)O [2-methylalanine]	24 ± 1 mM	–
C[C@@H](N)C(=O)O [D-alanine]	–	Michaelis-Menten saturation curves for ^HAR and ^DAR with protiated L- and D-alanine
C[C@H](N)C(=O)O [L-alanine]	–	Michaelis-Menten saturation curves for ^HAR and ^DAR with protiated L- and D-alanine
